Assay [1] deals with T1, human TRPA1 (hTRPA1) channels (Homo sapiens, UniProt O75762).
T1 construct: expressed in transfected cells; host or cells: HEK293T
In words: Whole-cell patch-clamp selectivity, hTRPA1 in HEK293T cells. As to conditions: CA at 1000 μM, current induced by AITC at 300 μM, mean ± SD, n = 5. In kind it is cell-based. (The patch-clamp technique gives a direct electrical read-out from membranes.)

Assay [2] deals with T2, human TRPV1 (hTRPV1) channels (Homo sapiens, UniProt Q8NER1).
T2 construct: expressed in transfected cells; host or cells: HEK293T
Kind of assay: Whole-cell patch-clamp selectivity, hTRPV1 in HEK293T cells. As to conditions: HEK-293T; CA at 1000 μM, current caused by 1 μM capsaicin, mean ± SD, n = 5. In kind it is cell-based.

Assay [3] concerns the target T3, human TRPV3 (hTRPV3) channel (Homo sapiens, UniProt Q8NET8).
T3 construct: expressed in transfected cells; host or cells: HEK293T
T3 sequence (Q8NET8 1-790): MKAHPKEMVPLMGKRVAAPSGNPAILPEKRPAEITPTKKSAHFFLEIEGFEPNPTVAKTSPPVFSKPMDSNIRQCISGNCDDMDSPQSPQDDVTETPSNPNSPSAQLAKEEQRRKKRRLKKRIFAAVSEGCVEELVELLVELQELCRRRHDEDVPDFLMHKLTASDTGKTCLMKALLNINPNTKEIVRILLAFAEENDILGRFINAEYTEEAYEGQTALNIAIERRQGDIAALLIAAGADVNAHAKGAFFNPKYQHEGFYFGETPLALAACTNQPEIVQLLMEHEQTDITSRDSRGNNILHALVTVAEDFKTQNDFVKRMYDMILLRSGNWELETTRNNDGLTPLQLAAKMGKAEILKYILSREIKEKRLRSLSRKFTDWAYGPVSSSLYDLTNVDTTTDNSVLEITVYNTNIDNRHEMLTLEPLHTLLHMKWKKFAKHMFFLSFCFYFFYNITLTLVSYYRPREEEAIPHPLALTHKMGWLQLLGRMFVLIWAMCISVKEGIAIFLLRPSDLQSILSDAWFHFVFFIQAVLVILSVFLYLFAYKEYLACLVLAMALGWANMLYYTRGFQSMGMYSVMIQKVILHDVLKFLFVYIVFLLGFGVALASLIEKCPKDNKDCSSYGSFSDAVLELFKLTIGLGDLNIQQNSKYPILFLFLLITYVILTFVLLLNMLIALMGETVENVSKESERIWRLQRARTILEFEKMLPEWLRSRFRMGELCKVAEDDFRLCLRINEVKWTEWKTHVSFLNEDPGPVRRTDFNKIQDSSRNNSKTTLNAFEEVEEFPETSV
In words: Whole-cell patch-clamp of hTRPV3 currents in transfected HEK293T cells. In kind it is cell-based. The settings on record: WT hTRPV3 in HEK293T, whole-cell, activated by 50 μM 2-APB, at +80 mV, Hill fit, mean ± SD; read-out: IC50, inhibition of hTRPV3 currents.

The target in the next assay is T4, hTRPV3 T636A mutant (Homo sapiens, UniProt Q8NET8, T636A).
T4 construct: expressed in transfected cells; host or cells: HEK293T
T4 sequence (Q8NET8 1-790 T636A): T3 sequence (Q8NET8 1-790) with T636A
In words: Whole-cell patch-clamp of hTRPV3 T636A mutant in HEK293T cells. In kind it is cell-based.

A further assay concerns the target T5, hTRPV3 single channel (Homo sapiens, UniProt Q8NET8).
T5 construct: expressed in transfected cells; host or cells: HEK293T
T5 sequence (Q8NET8 1-790): T3 sequence (Q8NET8 1-790)
Kind of assay: Inside-out single-channel recording of hTRPV3. In kind it is cell-based. The settings on record: CA at 500 μM co-applied with 50 μM 2-APB, −60 mV.

Another assay deals with T6, hTRPV3 L669A mutant (Homo sapiens, UniProt Q8NET8, L669A).
T6 sequence (Q8NET8 1-790 L669A): T3 sequence (Q8NET8 1-790) with L669A
In words: cell-based.

We go through 1 molecule from article PMC11357638 (Molecules, 2024).

One may read the inhibition as how much of the control response was suppressed. A word on the IC50: it is the midpoint of a concentration-inhibition curve.

Changes are numbered by the printed parent chain. Where “and” joins values, the source holds several entries; their conditions need not be identical. Equal entries are not always repeated.

T1 sequence (O75762 whole entry): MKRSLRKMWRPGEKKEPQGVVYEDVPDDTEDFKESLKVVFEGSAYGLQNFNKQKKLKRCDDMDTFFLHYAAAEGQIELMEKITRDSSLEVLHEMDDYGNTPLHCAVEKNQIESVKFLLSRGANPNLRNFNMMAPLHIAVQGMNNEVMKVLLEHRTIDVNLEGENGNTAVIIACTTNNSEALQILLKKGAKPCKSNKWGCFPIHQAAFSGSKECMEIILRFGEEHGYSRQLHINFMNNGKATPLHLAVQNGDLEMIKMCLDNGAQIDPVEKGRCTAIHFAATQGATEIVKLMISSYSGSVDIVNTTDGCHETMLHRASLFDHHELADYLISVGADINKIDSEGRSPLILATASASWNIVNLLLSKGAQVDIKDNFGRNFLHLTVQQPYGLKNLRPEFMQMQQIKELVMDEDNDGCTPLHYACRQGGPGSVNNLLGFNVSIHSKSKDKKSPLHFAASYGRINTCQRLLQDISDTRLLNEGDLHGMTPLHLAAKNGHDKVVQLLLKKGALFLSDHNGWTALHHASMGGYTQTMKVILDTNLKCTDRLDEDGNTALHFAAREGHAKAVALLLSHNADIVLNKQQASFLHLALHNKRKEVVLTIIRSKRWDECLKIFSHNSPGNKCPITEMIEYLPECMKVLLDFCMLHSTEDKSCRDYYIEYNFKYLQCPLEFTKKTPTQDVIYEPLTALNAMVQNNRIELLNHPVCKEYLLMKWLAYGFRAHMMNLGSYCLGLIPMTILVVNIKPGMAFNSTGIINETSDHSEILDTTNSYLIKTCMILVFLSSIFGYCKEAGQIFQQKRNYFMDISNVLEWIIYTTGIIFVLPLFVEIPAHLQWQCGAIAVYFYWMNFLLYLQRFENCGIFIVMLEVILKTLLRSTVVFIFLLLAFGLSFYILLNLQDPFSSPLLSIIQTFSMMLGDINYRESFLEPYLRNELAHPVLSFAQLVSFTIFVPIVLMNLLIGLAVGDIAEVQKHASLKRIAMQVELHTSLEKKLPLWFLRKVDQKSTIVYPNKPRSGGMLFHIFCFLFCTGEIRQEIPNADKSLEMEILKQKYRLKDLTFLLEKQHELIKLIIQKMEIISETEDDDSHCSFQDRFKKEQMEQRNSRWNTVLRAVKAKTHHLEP
T2 sequence (Q8NER1 whole entry): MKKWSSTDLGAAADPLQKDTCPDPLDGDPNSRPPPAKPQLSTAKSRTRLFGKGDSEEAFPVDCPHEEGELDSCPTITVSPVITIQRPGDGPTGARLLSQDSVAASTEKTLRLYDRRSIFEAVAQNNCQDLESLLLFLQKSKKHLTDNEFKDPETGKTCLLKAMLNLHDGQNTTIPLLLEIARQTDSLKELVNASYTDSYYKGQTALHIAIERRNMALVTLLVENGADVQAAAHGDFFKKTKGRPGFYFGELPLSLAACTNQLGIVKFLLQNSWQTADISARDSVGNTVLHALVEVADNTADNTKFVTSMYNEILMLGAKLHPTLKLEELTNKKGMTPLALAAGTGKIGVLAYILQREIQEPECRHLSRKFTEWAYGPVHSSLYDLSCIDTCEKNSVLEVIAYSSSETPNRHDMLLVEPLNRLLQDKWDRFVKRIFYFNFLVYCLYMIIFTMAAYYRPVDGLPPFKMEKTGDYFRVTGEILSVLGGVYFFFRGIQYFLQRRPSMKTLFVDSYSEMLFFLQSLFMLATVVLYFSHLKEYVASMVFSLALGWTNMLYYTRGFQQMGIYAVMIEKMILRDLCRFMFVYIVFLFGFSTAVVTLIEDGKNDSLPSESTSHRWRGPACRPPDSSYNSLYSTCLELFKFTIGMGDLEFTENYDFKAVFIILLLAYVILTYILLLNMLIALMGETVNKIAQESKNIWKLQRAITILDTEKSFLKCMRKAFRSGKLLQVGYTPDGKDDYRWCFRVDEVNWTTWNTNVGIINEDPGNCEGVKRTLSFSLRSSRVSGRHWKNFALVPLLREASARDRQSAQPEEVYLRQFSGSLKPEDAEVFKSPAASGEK

As to `O=C(O)/C=C/c1ccc(O)c(O)c1` [CA, caffeic acid], the “inhibition of human TRPA1 current” value in assay [1] is reported as “about 22.9 ± 12.0%”. This molecule also yielded an inhibition at 1000 µM in assay [2] of about 20%. For the same molecule, the IC50 was 102 µM and ~100 µM in assay [3]; > 1000 µM and 1000 µM at hTRPV3 T636A mutant (T636A hTRPV3, 50 μM 2-APB, +80 mV, Hill fit, read-out: IC50, inhibition of T636A mutant outward currents); 180 ± 59.9 µM at hTRPV3 L669A mutant. Besides, the “channel current inhibition by 500 μM CA compared to WT” value on hTRPV3 T636A mutant (T636A mutant, 50 μM 2-APB, 500 μM CA) was “significantly diminished”. Besides, the “open frequency (Freq)” value at hTRPV3 single channel stood at 15.96 ± 2.25 Hz.
